Source: patent US10106540B2, “HDAC6 inhibitors and their uses” (Universität Regensburg, priority 2014, dated 2018)
Entries after “also recorded” stand apart in the source; their conditions may differ.

How the values were obtained:
BV-173 cells [1] = assay: Western blot analysis in BV-173 cells; type: cell-based, human
Experimental: BV-173 cells (BCR-ABL positive leukemic cells) were used as control cells left (Ctl) or with 1 μM MARB1, 2 μM MARB2 or 2 mM VPA treated for 24 h. These concentrations were chosen to achieve equipotent effects on cells which was in preliminary tests (data not shown). Shown are acetylated tubulin-α, α-tubulin, acetylated histone H3, WT1, survivin and β-actin. The total amount of α-tubulin and β-actin were used as loading control. Mr, relative molecular weight in kilodaltons. The degradation of WT1 in patients treated with VPA cells bases on a loss of WT1 mRNA and the increased degradation of WT1 protein by induction of the E2 ubiquitin conjugase UbcH8.
(§1) Flow cytometric analysis of the induction of (A) apoptotic DNA fragmentation and (B) Cell cycle analysis of BV 173 cells. The cells were kept as control cells (Ctl), treated with 1 μM or 2 μM MARB1 MARB2 and 0.2 or 0.5 μM imatinib for 48 h. The data was received by two independent experiments. The individual compounds show only slight effects in the used concentrations; whereas their combination can effectively kill leukemic cells. (C) Western blot analysis on data from the BCR-ABL, acetylated tubulin and α-sliced PARP1; the total amount of tubulin-α serves as a loading control. BV-173 cells were treated for 24 h with 1 μM, or 2 μM MARB1 or MARB2.
(§2) Human leukemia cell lines BV 173 and K562 with BCR-ABL mutation (Leibniz Institute DSMZ—German Collection of Microorganisms and Cell Cultures, DSMZ Accession Nos: ACC-20 and ACC-10).
(§3) The assay is carried out as described in Buchwald et al. 2010 and Buchwald et al. 2013. Briefly, cells were collected and lysed in NET-N buffer (150 mM NaCl, 1 mM EDTA, 50 mM Tris-HCl (pH 7.8), 0.5% Nonidet P-40 (NP-40), 1 mM phenylmethylsulfonyl fluoride, 0.5 mg/ml leupeptin and 0.5 mg/ml pepstatin) followed by mild sonification on ice. Protein lysate ([…]) was boiled in Laemmli buffer and separated on SDS-polyacrylamide gel electrophoresis for western blotting with specific antibodies. All lysates were assessed by Bradford assay for protein concentrations.

UXF 1138 = assay: In vitro activity against solid tumor cell lines (FACS analysis method a); type: cell-based; settings: Homo sapiens, Uterus
Experimental: Human uterus cancer cell line UXF 1138 (Oncotest GmbH, Freiburg, Germany)
(§4) The assay is carried out as described in Pietschmann et al., 2012 and Brandl et al. 2012. Briefly, 10^5 cells were fixed in 1 ml 70% EtOH with 0.05% Tween-20 overnight at 4° C. The following day, cells were washed with 3 ml 38 mM sodium citrate, pH 7.4, and incubated for 20 min at 37° C. in 0.5 ml 38 mM sodium citrate, pH 7.4, supplemented with 50 μg/ml propidium iodide and 10 μg/ml RNase-A. DNA contents of the cells were measured by fluorescence-activated cell sorter (FACS). This method allows detection of the apoptotic subG1-fraction, which has a DNA content below 2n due to apoptotic cleavage of DNA. Equally, the cell cycle profile can be assessed with this method.
(§5) The novel HDAC6 inhibitors were tested in a panel of tumor cell lines for cytostatic/toxic activities (see Table 2).

[2] = tested on: MV4-11, BV173 and HCT116 cells; assay: Dose and time dependency of MARB1, Western blot method b; type: cell-based, human; settings: 50 nM
Experimental: Cells were seeded on a 6 well plate and incubated as shown. The blots were quantified with Image Studio Lite Version 5.0. (A) 1 Mio cells per sample were seeded and after 2 h adaption time the cells were stimulated as shown, followed by incubation and harvesting of the cells. Tubulin and HSP90 were used as loading control. […] HSP90 and Tubulin were used as loading control. n=1 (C) 200,000 cells were seeded in a 6 well plate and incubated over night for adhesion. B-Actin was used as loading control. n=1
For the examination of the time dependency of MARB1 MV4-11, BV173 and HCT116 cells were tested by western blot. All cells were seeded on a 6 well plate. The blots were quantified with Image Studio Lite Version 5.0. (A) 1 Mio cells per sample were seeded and after 2 h adaption time the cells were stimulated as shown. Following the incubation, the cells were harvested as described earlier. Tubulin and HSP90 were used as loading control. […] HSP90 was used as loading control. […]
Western Blot analysis method b was used for the blots illustrated in FIGS. 6 to 9 and 11: Equal amounts of proteins were separated with a sodium dodecyl sulfate-polyacrylamide gel electrophoresis (SDS-PAGE) using an electrophoresis buffer by Laemmli with 1% SDS. […] Fluorescence coupled secondary antibodies (LI-COR) were used and the signal was measured on the Odyssey to detect the proteins.

BV-173 cells [3] = assay: Flow cytometric analysis of BV-173 cells, combination with imatinib; type: cell-based, human; settings: BV-173, 1 μM MARB1 or 2 μM MARB2 combined with 0.2 or 0.5 μM imatinib, 48 h
Experimental: as §1, §2
as §4, with “This method allows detection of the apoptotic subG1-fraction, which has a DNA content below 2n due to apoptotic cleavage of DNA.” left out

RKO cells = assay: Western blot analysis in RKO colorectal cancer cells; type: cell-based, human
Experimental: FIG. 5. Various cancer cells were treated for 24 h as shown and tested by Western blot analysis.
(D) Inhibition of HDAC6 protects it from degradation by the addition of a pro-apoptotic agent (staurosporine, ST).
The total amount of vinculin serves as a loading control; Proof of tubulin acetylation serves as proof of the treatment accuracy. The loss of the caspase-3 corresponds to the induction of apoptosis (programmed cell death).
Human colon cancer cell lines RKO (ATCC Accession No: CRL-2577) and HCT-116 (DSMZ Accession No: ACC-581).
as §3

[4] = tested on: 42 solid tumor cell lines; assay: In vitro activity against solid tumor cell lines, mean of all lines; type: cell-based; settings: average IC50 value from all 42 measurements
MAXF MCF-7 = assay: In vitro activity against solid tumor cell lines (FACS analysis method a); type: cell-based; settings: Homo sapiens, MCF7, Breast
Experimental: (§6) Human breast cancer cell lines MAXF 401 and MAXF MCF-7 (Oncotest GmbH, Freiburg, Germany)
as §4, §5

MAXF 401 = assay: as above; type: cell-based; settings: Homo sapiens, MAXF401, Breast
Experimental: as §6, §4, §5

[5] = BV-173, 1 μM MARB1, 2 μM MARB2, 24 h

Q: `CN1C(=O)C2CN(Cc3c2c2ccccc2n3Cc2ccc(C(=O)NO)cc2)C1=O` (centres unmarked) [MARB1, N-Hydroxy-4-((4-methyl-3,5-dioxo-3,4,5,6-tetrahydro-2,6-methano[1,3]diazocino[5,6-b]indol-11(1H)-yl)methyl)benzamide] was tested. Which “acetylation of tubulin-α” value (BV-173 cells [1]; [5]) did it give?
A: hyperacetylation of tubulin-α

Q: And the expression of survivin (BV-173 cells [1]; [5])?
A: reduction of the expression of survivin

Q: And the “acetylation of histone H3” value (BV-173 cells [1]; BV-173, 1 μM MARB1, 2 μM MARB2 or 2 mM VPA, 24 h)?
A: Neither MARB1, nor MARB2 cause these alterations

Q: And the “BCR-ABL expression on the protein level” value (BV-173 cells [1]; BV-173, compound alone, 24 h)?
A: do not affect

Q: And the “BCR-ABL stabilization/degradation in combination with imatinib” value (BV-173 cells [1]; BV-173, with imatinib, 24 h)?
A: significantly inhibit the unwanted stabilization of BCR-ABL; also recorded: significant degradation of BCR-ABL

Q: And the IC50 (UXF 1138)?
A: 1.58 µM

Q: What about the acetylated tubulin ([2]; incubation for 30 min) of the same compound?
A: increase of acetylated tubulin is detectable

Q: And the “inhibition compared with Tubastatin A” value ([2]; short time course)?
A: faster and at later time points much more effective than Tubastatin A

Q: What about the “apoptotic and necrotic sub-G1 populations” value (BV-173 cells [3]) of the same compound?
A: significantly increases

Q: What about the hyperacetylation of tubulin (RKO cells; 0.5 μM, 24 h) of the same compound?
A: sufficient to induce hyperacetylation of tubulin

Q: And the “HDAC6 loss in staurosporin (ST)-treated cells” value (RKO cells; with staurosporine)?
A: protects ST-treated RKO cells

Q: What about the IC50 [4] of the same compound?
A: 5.03 µM

Q: And the IC50 (MAXF MCF-7)?
A: 2.33 µM

Q: What about the IC50 (MAXF 401) of the same compound?
A: 2.28 µM
